Values after ≈ are worked out from the molar mass of the structure shown. Like-named read-outs stand apart in the source and are kept apart here. Where a SMILES comes first, the peptide text is derived from it. Bridges are numbered along the chain shown (N, C = ends). [ ]: non-standard residue; d: D form. The star is where a group is joined. Decanoyl = CCCCCCCCCC(=O)*; Dab = NCC[C@H](N)C(=O)O
Assays:
[1] = system: E. coli CCUG 41432
Method: (§1) Polymyxin B sulfate (Sigma-Aldrich, St. Louis, Mo., USA) was used as a control. […] The bacterial test strains originated from ATCC (10 strains), CCUG (11 strains), and NCTC (3 strains). Fourteen (14) strains (the F-strains) were purchased from Mobidiag Ltd., Helsinki, Finland.
(§2) The inocula were prepared by adjusting the bacterial suspensions to a density equivalent to OD546 nm˜0.3 (˜10^8 CFU/ml˜0.5 McFarland) the yeast suspension to a density equivalent to OD546 nm˜0.75 (˜2×10^7 CFU/ml)._The suspensions were diluted to 10^7 CFU/ml. The plates were inoculated by using a Denley Multipoint Inoculator, 1 μl per spot corresponding to approx. 10^4 CFU/spot. Plates were incubated for 16-20 hours at 35° C.

[2] = system: E. coli NCTC 13352
Method: as §1, §2

[3] = system: K. pneumoniae F145
Method: as §1, §2

[4] = system: E. coli CCUG 41429
Method: as §1, §2

[5] = system: A. baumannii F263
Method: as §1, §2

[6] = system: P. aeruginosa F58
Method: as §1, §2

[7] = system: E. cloacae F232
Method: as §1, §2

[8] = system: S. aureus ATCC 25923
Method: as §1, §2

[9] = system: A. baumannii F264
Method: as §1, §2

[10] = system: E. coli F8
Method: as §1, §2

[11] = system: E. coli CCUG 41425
Method: as §1, §2

[12] = system: K. pneumoniae F136
Method: as §1, §2

[13] = system: K. pneumoniae F144; settings: K. pneumoniae F144
Method: as §1, §2

[14] = system: K. oxytoca ATCC 13182
Method: as §1, §2

[15] = system: E. coli NCTC 13353
Method: as §1, §2

[16] = system: E. coli ATCC 25922
Method: as §1, §2

[17] = system: E. coli F19
Method: as §1, §2

[18] = system: E. coli IH3080
Method: as §1, §2

[19] = system: S. maltophilia ATCC 17444
Method: as §1, §2

[20] = system: A. baumannii ATCC 19606
Method: as §1, §2

[21] = system: K. oxytoca CCUG 51683
Method: as §1, §2

[22] = system: E. coli CCUG 41424
Method: as §1, §2

[23] = system: E. cloacae F231
Method: as §1, §2

[24] = system: E. cloacae ATCC 23355
Method: as §1, §2

[25] = system: P. aeruginosa ATCC 27853
Method: as §1, §2

[26] = system: E. coli NCTC 13351
Method: as §1, §2

[27] = system: C. freundii ATCC 8090
Method: as §1, §2

[28] = system: S. marcescens ATCC 8100
Method: as §1, §2

[29] = system: K. pneumoniae ATCC 13883
Method: as §1, §2

[30] = system: E. cloacae CCUG 52947
Method: as §1, §2

[31] = system: E. coli CCUG 41427
Method: as §1, §2

[32] = system: K. pneumoniae CCUG 45421
Method: as §1, §2

[33] = system: P. aeruginosa CCUG 51971
Method: as §1, §2

[34] = system: E. coli CCUG 41422
Method: as §1, §2

[35] = system: Ps. aeruginosa ATCC 27853; experiment: Sensitization to rifampin: growth inhibition around wells on LB plates containing rifampin; type: cell-based, Pseudomonas aeruginosa; settings: 4 μg

## Polymyxin B [reference compound]
[1]; E. coli CCUG41432
  MIC: 1 µg/mL
[2]; E. coli NCTC 13352
  MIC: 0.25 µg/mL
[3]; K. pneumoniae F145
  MIC: 0.5 µg/mL
[4]; E. coli CCUG41429
  MIC: 1 µg/mL
[5]; A. baumannii F263
  MIC: 1 µg/mL
[6]; P. aeruginosa F58
  MIC: 0.5 µg/mL
[7]; E. cloacae F232
  MIC: 0.5 µg/mL
[8]; S. aureus ATCC 25923
  MIC: >32 µg/mL
[9]; A. baumannii F264
  MIC: 0.5 µg/mL
[10]; E. coli F8
  MIC: 1 µg/mL
[11]; E. coli CCUG41425
  MIC: 0.5 µg/mL
[12]; K. pneumoniae F136
  MIC: 0.5 µg/mL
[13]
  MIC: 1 µg/mL
[14]; K. oxytoca ATCC13182
  MIC: 0.5 µg/mL
[15]; E. coli NCTC13353
  MIC: 1 µg/mL
[16]; E. coli ATCC25922
  MIC: 1 µg/mL
[17]; E. coli F19
  MIC: 1 µg/mL
[18]; E. coli IH3080
  MIC: 0.5 µg/mL
[19]; S. maltophilia ATCC17444
  MIC: 1 µg/mL
[20]; A. baumannii ATCC 19606
  MIC: 1 µg/mL
[21]; K. oxytoca CCUG51683
  MIC: 0.5 µg/mL
[22]; E. coli CCUG41424
  MIC: 1 µg/mL
[23]; E. cloacae F231
  MIC: 0.5 µg/mL
[24]; E. cloacae ATCC23355
  MIC: 0.5 µg/mL
[25]; P. aeruginosa ATCC27853
  MIC: 1 µg/mL
[26]; E. coli NCTC13351
  MIC: 0.5 µg/mL
[27]; C. freundii ATCC8090
  MIC: 1 µg/mL
[28]; S. marcescens ATCC8100
  MIC: >32 µg/mL
[29]; K. pneumoniae ATCC13883
  MIC: 32(−8) μg/ml
[30]; E. cloacae CCUG52947
  MIC: 1 µg/mL
[31]; E. coli CCUG41427
  MIC: 1 µg/mL
[32]; K. pneumoniae CCUG45421
  MIC: 1 µg/mL

## CCCCCCCCCC(=O)N[C@H](C(=O)N[C@H](CO)C(=O)N[C@H]1CCNC(=O)[C@H]([C@@H](C)O)NC(=O)[C@H](CCN)NC(=O)[C@H](CCN)NC(=O)[C@H](CC(C)C)NC(=O)[C@@H](Cc2ccccc2)NC(=O)[C@H](CCN)NC1=O)[C@@H](C)O [NAB 740, DA-Thr-DSer-cy[Dab-Dab-DPhe-Leu-Dab-Dab-Thr-]] (Decanoyl-T[dS][Dab][Dab][dF]L[Dab][Dab]T; lactam 3-C)
[1]; CCUG 41432
  MIC: 2 µg/mL (≈ 1.81 µM)
[2]; NCTC 13352
  MIC: 1 µg/mL (≈ 0.906 µM)
[3]; F145
  MIC: 2 µg/mL (≈ 1.81 µM)
[4]; CCUG 41429
  MIC: 1 µg/mL (≈ 0.906 µM)
[5]; F263
  MIC: 2 µg/mL (≈ 1.81 µM)
[6]; F58
  MIC: 4 µg/mL (≈ 3.62 µM)
[7]; F232
  MIC: 2 µg/mL (≈ 1.81 µM)
[8]; ATCC 25923
  MIC: >32 µg/mL
[9]; F264
  MIC: 2 µg/mL (≈ 1.81 µM)
[10]; F8
  MIC: 2 µg/mL (≈ 1.81 µM)
[11]; CCUG 41425
  MIC: 2 µg/mL (≈ 1.81 µM)
[12]; F136
  MIC: 2 µg/mL (≈ 1.81 µM)
[13]
  MIC: 16(−4) μg/ml
[14]; ATCC 13182
  MIC: 2 µg/mL (≈ 1.81 µM)
[15]; NCTC 13353
  MIC: 2 µg/mL (≈ 1.81 µM)
[16]; ATCC 25922
  MIC: 2 µg/mL (≈ 1.81 µM)
[17]; F19
  MIC: 1 µg/mL (≈ 0.906 µM)
[18]; IH3080
  MIC: 2 µg/mL (≈ 1.81 µM)
[19]; ATCC 17444
  MIC: 8 µg/mL (≈ 7.24 µM)
[20]; ATCC 19606
  MIC: 4 µg/mL (≈ 3.62 µM)
[21]; CCUG 51683
  MIC: 2 µg/mL (≈ 1.81 µM)
[22]; CCUG 41424
  MIC: 2 µg/mL (≈ 1.81 µM)
[23]; F231
  MIC: 2 µg/mL (≈ 1.81 µM)
[24]; ATCC 23355
  MIC: 2 µg/mL (≈ 1.81 µM)
[25]; ATCC 27853
  MIC: 4 µg/mL (≈ 3.62 µM)
[33]
  MIC: 8 µg/mL (≈ 7.24 µM)
[34]
  MIC: 2 µg/mL (≈ 1.81 µM)
[26]; NCTC 13351
  MIC: 1 µg/mL (≈ 0.906 µM)
[27]; ATCC 8090
  MIC: 2 µg/mL (≈ 1.81 µM)
[28]; ATCC 8100
  MIC: >32 µg/mL
[29]; ATCC 13883
  MIC: 8 µg/mL (≈ 7.24 µM)
[30]; CCUG 52947
  MIC: 2 µg/mL (≈ 1.81 µM)
[31]; CCUG 41427
  MIC: 1 µg/mL (≈ 0.906 µM)
[32]; CCUG 45421
  MIC: 4 µg/mL (≈ 3.62 µM)
[35]; rifampin 0 μg/ml
  growth inhibition around a well in the presence of rifampin: 64 square millimeters
[35]; rifampin 0.1 μg/ml
  growth inhibition around a well in the presence of rifampin: 64 square millimeters
[35]; rifampin 0.3 μg/ml
  growth inhibition around a well in the presence of rifampin: 64 square millimeters

From patent publication US8329645B2, “Polymyxin derivatives and uses thereof” (priority 2008, dated 2012)
